From patent US6787569B1, “Therapeutic guanidines” (Cambridge NeuroScience, Inc., priority 1994, dated 2004)
Structures can show the parent of a compound that is named as a salt.

tested on: depolarization-induced 3H-glutamate release from brain nerve terminals; assay: Inhibition of 3H-glutamate release, high [K+] depolarization, rapid superfusion of synaptosomes; format: biochemical; settings: 0.3 μM compound, rat brain synaptosomes

Point of comparison: `CCCCCN(C(=N)Nc1ccc(C(C)CC)cc1)c1ccc(C(C)CC)cc1.Cl` (centres unmarked) [Example 46, N,N′-(sec-Butylphenyl)-N′-(n-pentyl)guanidine.HCl], “% Inhibition of ^3H-Glu Rel @ 0.3 μM” value 65%. Against it:
- CC(Cc1ccc(Cl)cc1)NC(=N)Nc1ccc2c3c(cccc13)CC2.Cl (centres unmarked) [Example 40, N-(5-Acenaphthyl)-N′-(1-methyl-2-(4-chlorophenyl)ethyl)guanidine.HCl] — lower, 46%

same assay, conditions: 1 μM compound, rat brain synaptosomes

Point of comparison: `Cl.N=C(N)N(Cc1cccc(Oc2ccccc2)c1)c1ccc2c3c(cccc13)CC2` [Example 53, N-(5-Acenaphthyl)-N-(3-phenoxybenzyl)guanidine.HCl], “% Inhibition of ^3H-Glu Rel @ 1 μM” value 37%. Against it:
- CS(=O)(=O)O.N=C(Nc1ccc2c3c(cccc13)CC2)N1CCCc2ccccc21 [Example 7, N-(5-Acenaphthyl)-N′-(1,2,3,4-tetrahydroquinolinyl)guanidine.mesylate] — lower, 20%
- Br.N=C(Nc1cccc(-c2ccccc2)c1)Nc1cccc(-c2ccccc2)c1 [Example 30, N,N′-Bis(3-biphenyl)guanidine.HBr] — lower, 25%
- Br.CC(C)(C)c1cccc(NC(=N)Nc2cccc(C(C)(C)C)c2)c1 [Example 31, N,N′-Di-(3-tert-butylphenyl)guanidine.HBr] — lower, 24%
- Br.CCC(C)c1cccc(NC(=N)Nc2cccc(C(C)CC)c2)c1 (centres unmarked) [Example 34, N,N′-Bis-(3-sec-butylphenyl)guanidine.HBr] — higher, 63%
- Br.CN(C(=N)Nc1ccc(C(C)(C)C)cc1)c1ccc(C(C)(C)C)cc1 [Example 35, N,N′-Bis(4-tert-butylphenyl)-N-methylguanidine.HBr] — higher, 61%
- CC(Cc1ccc(Cl)cc1)NC(=N)Nc1ccc2c3c(cccc13)CC2.Cl (centres unmarked) [Example 40, N-(5-Acenaphthyl)-N′-(1-methyl-2-(4-chlorophenyl)ethyl)guanidine.HCl] — higher, 64%
- Cl.N=C(Nc1ccc2c3c(cccc13)CC2)NC(Cc1ccccc1)c1ccccc1 (centres unmarked) [Example 41, N-(5-Acenaphthyl)-N′-(1,2-diphenylethyl)guanidine.HCl] — higher, 52%
- CCCCCN(C(=N)Nc1ccc(C(C)CC)cc1)c1ccc(C(C)CC)cc1.Cl (centres unmarked) [Example 46, N,N′-(sec-Butylphenyl)-N′-(n-pentyl)guanidine.HCl] — higher, 100%
- CC(C)(C)c1ccc(CN(C(=N)N)c2cccc3ccccc23)cc1.Cl [Example 47, N-(1-Naphthyl)-N-4(tert-butylbenzyl)guanidine.HCl] — higher, 40%
- Cl.N=C(N)N(Cc1ccc(I)cc1)c1ccc2c3c(cccc13)CC2 [Example 58, N-(5-Acenaphthyl)-N-(4-iodobenzyl)guanidine.HCl] — higher, 43%
- N=C(N)N(Cc1ccc(OC(F)(F)F)cc1)c1ccc2c3c(cccc13)CC2 [Example 59, N-(5-Acenaphthyl)-N-(4-trifluaromethoxybenzyl)guanidine.HCl] — higher, 44%
- CCC(C)c1cccc(N(Cc2ccc(C(C)(C)C)cc2)C(=N)N)c1.Cl (centres unmarked) [Example 62, N-(3-sec-Butylphenyl)-N-(4-tert-butylbenzyl)guanidine.HCl] — lower, 22%
- CC(C)(C)c1ccc(CN(C(=N)N)c2cccc(C(C)(C)C)c2)cc1.Cl [Example 63, N-(3-tert-Butylphenyl)-N-(4-tert-butylbenzyl)guanidine.HCl] — higher, 40%
- CCCCCOc1cccc(N(Cc2ccc(C(C)(C)C)cc2)C(=N)N)c1.Cl [Example 64, N-(3-Pentoxyphenyl)-N-(4-tert-butylbenzyl)guanidine.HCl] — higher, 41%
- Cl.N=C(N)N(Cc1ccc(OCc2ccccc2)cc1)c1ccc2c3c(cccc13)CC2 [Example 65, N-(5-Acenaphthyl)-N-(4-benzyloxybenzyl)guanidine.HCl] — higher, 42%

same assay, conditions: 1 μM compound, rat brain synaptosomes, 1 µM

`Br.CN(C(=N)N(C)c1ccc(C(C)(C)C)cc1)c1ccc(C(C)(C)C)cc1` [Example 36, N,N′-Bis(4-tert-butylphenyl)-N,N′-methylguanidine.HBr] was tested, and the “% Inhibition of ^3H-Glu Rel @ 1 μM” value was 67%.

same assay, conditions: 3 μM compound, rat brain synaptosomes

With `CS(=O)(=O)O.N=C(Nc1ccc2c3c(cccc13)CC2)N1CCCc2ccccc21` [Example 7, N-(5-Acenaphthyl)-N′-(1,2,3,4-tetrahydroquinolinyl)guanidine.mesylate] the “% Inhibition of ^3H-Glu Rel @ 3 μM” value was 16%.
